Experimental data taken from ChEMBL document CHEMBL1144385, “Solid-phase synthesis and antibacterial evaluations of N-demethylvancomycin derivatives” (2005).
Converted amounts (≈) assume the structure as drawn.

Assays:
Type in all cases: functional
[1] = system: Staphylococcus aureus; assay: Minimum inhibitory concentration against growth of Methicillin resistant […] aureus
[2] = system: Staphylococcus aureus; assay: Minimum inhibitory concentration against growth of […] aureus (ATCC 29213)
[3] = system: Enterococcus faecalis; assay: Minimum inhibitory concentration against growth of Enterococcus faecalis (ATCC 29212)
[4] = system: Enterococcus faecalis; assay: Minimum inhibitory concentration against growth of vancomycin-resistant Enterococcus faecalis (ATCC 51299)

Row | SMILES | MIC [1] | MIC [2] | MIC [3] | MIC [4]
1 | CN[C@H](CC(C)C)C(=O)N[C@H]1C(=O)N[C@@H](CC(N)=O)C(=O)N[C@H]2C(=O)N[C@H]3C(=O)N[C@H](C(=O)N[C@H](C(=O)O)c4cc(O)cc(O)c4-c4cc3ccc4O)[C@H](O)c3ccc(c(Cl)c3)Oc3cc2cc(c3O[C@@H]2O[C@H](CO)[C@@H](O)[C@H](O)[C@H]2O[C@H]2C[C@](C)(N)[C@H](O)[C@H](C)O2)Oc2ccc(cc2Cl)[C@H]1O [VANCOMYCIN] | 1.25 µg/mL (≈ 0.863 µM) | 0.62 µg/mL (≈ 0.428 µM) | 2.5 µg/mL (≈ 1.73 µM) | > 10 µg/mL
2 | CC(C)C[C@@H](Nc1ccc(F)cc1)C(=O)N[C@H]1C(=O)N[C@@H](CC(N)=O)C(=O)N[C@H]2C(=O)N[C@H]3C(=O)N[C@H](C(=O)N[C@H](C(=O)NCC(=O)O)c4cc(O)cc(O)c4-c4cc3ccc4O)[C@H](O)c3ccc(c(Cl)c3)Oc3cc2cc(c3O[C@@H]2O[C@@H](CO)[C@@H](O)[C@H](O)[C@@H]2O[C@H]2C[C@](C)(Nc3ccc(F)cc3)[C@H](O)[C@H](C)O2)Oc2ccc(cc2Cl)[C@H]1O | > 10 µg/mL | > 10 µg/mL | > 10 µg/mL | > 10 µg/mL
3 | CC(C)C[C@@H](N)C(=O)N[C@H]1C(=O)N[C@@H](CC(N)=O)C(=O)N[C@H]2C(=O)N[C@H]3C(=O)N[C@H](C(=O)N[C@H](C(=O)NCC(=O)O)c4cc(O)cc(O)c4-c4cc3ccc4O)[C@H](O)c3ccc(c(Cl)c3)Oc3cc2cc(c3O[C@@H]2O[C@@H](CO)[C@@H](O)[C@H](O)[C@@H]2O[C@H]2C[C@](C)(Nc3ccc(-c4ccccc4)cc3)[C@H](O)[C@H](C)O2)Oc2ccc(cc2Cl)[C@H]1O | 5 µg/mL (≈ 3.04 µM) | 5 µg/mL (≈ 3.04 µM) | 5 µg/mL (≈ 3.04 µM) | > 10 µg/mL
4 | CCC(CC)N[C@H](CC(C)C)C(=O)N[C@H]1C(=O)N[C@@H](CC(N)=O)C(=O)N[C@H]2C(=O)N[C@H]3C(=O)N[C@H](C(=O)N[C@H](C(=O)NCC(=O)O)c4cc(O)cc(O)c4-c4cc3ccc4O)[C@H](O)c3ccc(c(Cl)c3)Oc3cc2cc(c3O[C@@H]2O[C@@H](CO)[C@@H](O)[C@H](O)[C@@H]2O[C@H]2C[C@](C)(N)[C@H](O)[C@H](C)O2)Oc2ccc(cc2Cl)[C@H]1O | 10 µg/mL (≈ 6.4 µM) | 10 µg/mL (≈ 6.4 µM) | > 10 µg/mL | > 10 µg/mL
5 | C/C=C/CN[C@H](CC(C)C)C(=O)N[C@H]1C(=O)N[C@@H](CC(N)=O)C(=O)N[C@H]2C(=O)N[C@H]3C(=O)N[C@H](C(=O)N[C@H](C(=O)NCC(=O)O)c4cc(O)cc(O)c4-c4cc3ccc4O)[C@H](O)c3ccc(c(Cl)c3)Oc3cc2cc(c3O[C@@H]2O[C@@H](CO)[C@@H](O)[C@H](O)[C@@H]2O[C@H]2C[C@](C)(Nc3ccc(OC)cc3)[C@H](O)[C@H](C)O2)Oc2ccc(cc2Cl)[C@H]1O | 10 µg/mL (≈ 6.05 µM) | 10 µg/mL (≈ 6.05 µM) | > 10 µg/mL | > 10 µg/mL
6 | CC(C)C[C@H](C(=O)N[C@H]1C(=O)N[C@@H](CC(N)=O)C(=O)N[C@H]2C(=O)N[C@H]3C(=O)N[C@H](C(=O)N[C@H](C(=O)NCC(=O)O)c4cc(O)cc(O)c4-c4cc3ccc4O)[C@H](O)c3ccc(c(Cl)c3)Oc3cc2cc(c3O[C@@H]2O[C@@H](CO)[C@@H](O)[C@H](O)[C@@H]2O[C@H]2C[C@](C)(NC(=O)OCC3c4ccccc4-c4ccccc43)[C@H](O)[C@H](C)O2)Oc2ccc(cc2Cl)[C@H]1O)N(C)C(=O)OCC1c2ccccc2-c2ccccc21 | 5 µg/mL (≈ 2.56 µM) | > 10 µg/mL | 10 µg/mL (≈ 5.13 µM) | 5 µg/mL (≈ 2.56 µM)
7 | CCCN(CCC)[C@H](CC(C)C)C(=O)N[C@H]1C(=O)N[C@@H](CC(N)=O)C(=O)N[C@H]2C(=O)N[C@H]3C(=O)N[C@H](C(=O)N[C@H](C(=O)NCC(=O)O)c4cc(O)cc(O)c4-c4cc3ccc4O)[C@H](O)c3ccc(c(Cl)c3)Oc3cc2cc(c3O[C@@H]2O[C@@H](CO)[C@@H](O)[C@H](O)[C@@H]2O[C@H]2C[C@](C)(Nc3ccc(Cl)cc3)[C@H](O)[C@H](C)O2)Oc2ccc(cc2Cl)[C@H]1O | 5 µg/mL (≈ 2.96 µM) | 5 µg/mL (≈ 2.96 µM) | > 10 µg/mL | > 10 µg/mL
8 | CCCN[C@H](CC(C)C)C(=O)N[C@H]1C(=O)N[C@@H](CC(N)=O)C(=O)N[C@H]2C(=O)N[C@H]3C(=O)N[C@H](C(=O)N[C@H](C(=O)NCC(=O)O)c4cc(O)cc(O)c4-c4cc3ccc4O)[C@H](O)c3ccc(c(Cl)c3)Oc3cc2cc(c3O[C@@H]2O[C@@H](CO)[C@@H](O)[C@H](O)[C@@H]2O[C@H]2C[C@](C)(Nc3ccc(Cl)cc3)[C@H](O)[C@H](C)O2)Oc2ccc(cc2Cl)[C@H]1O | 10 µg/mL (≈ 6.08 µM) | 10 µg/mL (≈ 6.08 µM) | > 10 µg/mL | > 10 µg/mL
9 | CCC(CC)N[C@H](CC(C)C)C(=O)N[C@H]1C(=O)N[C@@H](CC(N)=O)C(=O)N[C@H]2C(=O)N[C@H]3C(=O)N[C@H](C(=O)N[C@H](C(=O)NCC(=O)O)c4cc(O)cc(O)c4-c4cc3ccc4O)[C@H](O)c3ccc(c(Cl)c3)Oc3cc2cc(c3O[C@@H]2O[C@@H](CO)[C@@H](O)[C@H](O)[C@@H]2OC2C[C@](C)(NC(CC)CC)[C@H](O)[C@H](C)O2)Oc2ccc(cc2Cl)[C@H]1O (single isomer, unassigned) | > 10 µg/mL | > 10 µg/mL | > 10 µg/mL | > 10 µg/mL
10 | CCCN(CCC)[C@H](CC(C)C)C(=O)N[C@H]1C(=O)N[C@@H](CC(N)=O)C(=O)N[C@H]2C(=O)N[C@H]3C(=O)N[C@H](C(=O)N[C@H](C(=O)NCC(=O)O)c4cc(O)cc(O)c4-c4cc3ccc4O)[C@H](O)c3ccc(c(Cl)c3)Oc3cc2cc(c3O[C@@H]2O[C@@H](CO)[C@@H](O)[C@H](O)[C@@H]2O[C@H]2C[C@](C)(Nc3ccc(F)cc3)[C@H](O)[C@H](C)O2)Oc2ccc(cc2Cl)[C@H]1O | > 10 µg/mL | > 10 µg/mL | > 10 µg/mL | > 10 µg/mL
11 | CCC(CC)N[C@H](CC(C)C)C(=O)N[C@H]1C(=O)N[C@@H](CC(N)=O)C(=O)N[C@H]2C(=O)N[C@H]3C(=O)N[C@H](C(=O)N[C@H](C(=O)NCC(=O)O)c4cc(O)cc(O)c4-c4cc3ccc4O)[C@H](O)c3ccc(c(Cl)c3)Oc3cc2cc(c3O[C@@H]2O[C@@H](CO)[C@@H](O)[C@H](O)[C@@H]2O[C@H]2C[C@](C)(Nc3ccc(Cl)cc3)[C@H](O)[C@H](C)O2)Oc2ccc(cc2Cl)[C@H]1O | > 10 µg/mL | > 10 µg/mL | > 10 µg/mL | > 10 µg/mL
12 | CCC(CC)N[C@H](CC(C)C)C(=O)N[C@H]1C(=O)N[C@@H](CC(N)=O)C(=O)N[C@H]2C(=O)N[C@H]3C(=O)N[C@H](C(=O)N[C@H](C(=O)NCC(=O)O)c4cc(O)cc(O)c4-c4cc3ccc4O)[C@H](O)c3ccc(c(Cl)c3)Oc3cc2cc(c3O[C@@H]2O[C@@H](CO)[C@@H](O)[C@H](O)[C@@H]2O[C@H]2C[C@](C)(Nc3cccnc3)[C@H](O)[C@H](C)O2)Oc2ccc(cc2Cl)[C@H]1O | > 10 µg/mL | > 10 µg/mL | > 10 µg/mL | > 10 µg/mL
13 | CC(C)C[C@@H](N)C(=O)N[C@H]1C(=O)N[C@@H](CC(N)=O)C(=O)N[C@H]2C(=O)N[C@H]3C(=O)N[C@H](C(=O)N[C@H](C(=O)NCC(=O)O)c4cc(O)cc(O)c4-c4cc3ccc4O)[C@H](O)c3ccc(c(Cl)c3)Oc3cc2cc(c3O[C@@H]2O[C@@H](CO)[C@@H](O)[C@H](O)[C@@H]2O[C@H]2C[C@](C)(Nc3ccc(Cl)cc3)[C@H](O)[C@H](C)O2)Oc2ccc(cc2Cl)[C@H]1O | 5 µg/mL (≈ 3.12 µM) | 5 µg/mL (≈ 3.12 µM) | 10 µg/mL (≈ 6.24 µM) | > 10 µg/mL
14 | CCC(CC)N[C@H](CC(C)C)C(=O)N[C@H]1C(=O)N[C@@H](CC(N)=O)C(=O)N[C@H]2C(=O)N[C@H]3C(=O)N[C@H](C(=O)N[C@H](C(=O)NCC(=O)O)c4cc(O)cc(O)c4-c4cc3ccc4O)[C@H](O)c3ccc(c(Cl)c3)Oc3cc2cc(c3O[C@@H]2O[C@@H](CO)[C@@H](O)[C@H](O)[C@@H]2O[C@H]2C[C@](C)(Nc3ccc(-c4ccccc4)cc3)[C@H](O)[C@H](C)O2)Oc2ccc(cc2Cl)[C@H]1O | 2.5 µg/mL (≈ 1.46 µM) | 5 µg/mL (≈ 2.92 µM) | 5 µg/mL (≈ 2.92 µM) | > 10 µg/mL
15 | CC(C)C[C@@H](N)C(=O)N[C@@H]1C(=O)N[C@@H](CC(N)=O)C(=O)N[C@H]2C(=O)N[C@H]3C(=O)N[C@H](C(=O)N[C@H](C(=O)O)c4cc(O)cc(O)c4-c4cc3ccc4O)[C@H](O)c3ccc(c(Cl)c3)Oc3cc2cc(c3O[C@@H]2O[C@H](CO)[C@@H](O)[C@H](O)[C@H]2O[C@H]2C[C@](C)(N)C(O)[C@H](C)O2)Oc2ccc(cc2Cl)[C@H]1O (stereo partly drawn) [DEMETHYLVANCOMYCIN] | < 0.6 µg/mL | < 0.6 µg/mL | 2.5 µg/mL (≈ 1.74 µM) | > 10 µg/mL
16 | CC(C)C[C@H](C(=O)N[C@H]1C(=O)N[C@@H](CC(N)=O)C(=O)N[C@H]2C(=O)N[C@H]3C(=O)N[C@H](C(=O)N[C@H](C(=O)NCC(=O)O)c4cc(O)cc(O)c4-c4cc3ccc4O)[C@H](O)c3ccc(c(Cl)c3)Oc3cc2cc(c3O[C@@H]2O[C@@H](CO)[C@@H](O)[C@H](O)[C@@H]2O[C@H]2C[C@](C)(Nc3cccnc3)[C@H](O)[C@H](C)O2)Oc2ccc(cc2Cl)[C@H]1O)N(CCc1ccccc1)CCc1ccccc1 | > 10 µg/mL | > 10 µg/mL | > 10 µg/mL | > 10 µg/mL
17 | CC(C)C[C@H](C(=O)N[C@H]1C(=O)N[C@@H](CC(N)=O)C(=O)N[C@H]2C(=O)N[C@H]3C(=O)N[C@H](C(=O)N[C@H](C(=O)NCC(=O)O)c4cc(O)cc(O)c4-c4cc3ccc4O)[C@H](O)c3ccc(c(Cl)c3)Oc3cc2cc(c3O[C@@H]2O[C@@H](CO)[C@@H](O)[C@H](O)[C@@H]2O[C@H]2C[C@](C)(N)[C@H](O)[C@H](C)O2)Oc2ccc(cc2Cl)[C@H]1O)N(C)C(=O)OCC1c2ccccc2-c2ccccc21 | 10 µg/mL (≈ 5.79 µM) | 10 µg/mL (≈ 5.79 µM) | 10 µg/mL (≈ 5.79 µM) | > 10 µg/mL
